For assay [1], the system named is interleukin-1α (IL1α)-mediated cytokine production by the lung adenocarcinoma cell line A549. The experiment in a line: Cellular assay (A549) against IL1α-mediated cytokine production. The following applies: serum starved A549 cells, compound 30 min prior to IL-1α (1 ng/ml) for 24 h, ELISA. The assay is classed as cell-based, human. Here is the method:
Cellular Assay (A549 Human Lung Adenocarcinoma Cells) Assessing Effect of ZH3-138, ZH3-126 and PF670462 Against IL1α-Mediated Cytokine Production
The anti-inflammatory potential of selected compounds was examined by establishing the effects on interleukin-1α (IL1α)-mediated cytokine production by the lung adenocarcinoma cell line A549. Serum starved A549 cells were treated with various concentrations of the relevant CK1δ inhibitor (PF670462, ZH3-126 and ZH3-138) 30 min prior to IL-1α (1 ng/ml) for 24 h. Supernatant was collected and concentration of IL-6, IL-8 and GM-CSF was detected by ELISA. Data are presented as mean±SEM across three replicates in FIG. 7 (A: IL-6; B: IL-8 and C: GM-CSF).
(An ELISA detects its analyte on a solid surface through an enzyme-linked reagent.)

Assay [2] relates to TGF-β-induced IL-11 in primary human parenchymal fibroblast cells (pFbs). The experiment in a line: Human parenchymal fibroblast cell assay, TGF-β-induced IL-11 (ELISA). The assay is classed as cell-based. The note with it: compounds 0.1-10 μM 30 min prior to TGF-β1, 16-24 hours, 4.00* is assigned to compounds that failed to cause 50% or more inhibition at 10 µM, read-out: pIC50 IL-11 suppression (converted). Here is the method:
Human Parenchymal Fibroblast Cell Assay
Primary human parenchymal fibroblast cells (pFbs) were cultured from parenchyma of lung resection specimens and from non-transplanted lungs of donors without chronic respiratory disease. pFbs were passaged in Dulbecco's Modified Eagle's Media (DMEM) containing 10% (v/v) heat-inactivated fetal calf serum (FCS), 15 mM HEPES, 0.2% (v/v) sodium bicarbonate, 2 mM L-glutamine, 1% (v/v) non-essential amino acids, 1% (v/v) sodium pyruvate, 2.5 μg/mL amphotericin, 5 IU/mL penicillin and 50 μg/mL streptomycin. In some experiments the human lung fibroblast cell line, MRC5 (sourced from ATTC) was used as indicated. The MRC5 line was maintained under the same conditions as described for the pFb.
Prior to experimentation, pFb were incubated in serum-free DMEM containing 0.25% bovine serum albumin (BSA) and insulin-transferrin-selenium-containing supplement (Monomed A; CSL, Parkville, Melbourne, Australia). The cells were incubated with small molecular CK1δ inhibitors (0.1-10 μM) for 30 min prior to […] TGF-β1 (R&D Systems, Minneapolis, Minn.) and the incubation continued for 16-24 hours prior to harvest of supernatant for detection of immunoreactive IL-11. Stock solutions were made as 10 mM in 100% DMSO and diluted to the required concentration in medium containing 0.1% DMSO (final concentration).
Supernatants were collected for measurement of IL-11 (R&D DuoSet, DY218) by ELISA following the manufacturers' instructions. Generally, capture antibodies were initially diluted to the recommended concentrations using PBS buffer, and then used to coat the wells of 96-well microplates (Greiner, #655061) by adding 50 μL/well and incubated overnight at room temperature. Next day, solutions were discarded and wells were washed 3 times with wash buffer (PBS containing 0.1% (v/v) Tween-20) prior to the addition of 200 μL of blocking solution (PBS containing 1% (v/v) BSA) for 1 hour to block non-specific sites. Plates were then washed 3 times with wash buffer and 50 μL of samples or standards were then added to wells and incubated for 2 hours at room temperature. After the incubation, plates were washed 3 times with wash buffer and 50 μL of detection antibodies were added to wells and incubated for 2 hours at room temperature. Plates were then washed 3 times before adding streptavidin-conjugated horseradish peroxidase (at the recommended concentrations) for 45 min. Plates were then washed 5 times with wash buffer and 100 μL TMB substrate solution (equal parts A and B, BD Biosciences) was added to each well until sufficient signals emerged. The reactions were inactivated by adding 100 μL sulphuric acid (2M H2SO4). The absorbance was measured at 450 nm using the Multiskan Ascent® plate reader. The absorbance of the cytokine standards was fitted to a logistic equation, allowing the concentrations of cytokine in samples to be determined.
PIC50 values (the negative log of the concentration suppressing IL-11 level by 50%) for inhibition of TGF-β-induced IL-11 were interpolated from the linear regression of log concentration small molecule versus IL-11 level (Table 4 and FIG. 2).

As for `Nc1nccc(-c2c(-c3ccc(F)cc3)ncn2C2CCC(F)(F)CC2)n1` [ZH3-138, 4-(1-(4,4-Difluorocyclohexyl)-4-(4-fluorophenyl)-1H-imidazol-5-yl)pyrimidin-2-amine], the “supernatant concentrations of inflammatory biomarkers (IL-6, IL-8, GM-CSF)” value in assay [1] was “ability to reduce supernatant concentrations of other inflammatory biomarkers”. For the same compound, the IC50 in assay [2] was 20 µM.

The record behind these values is patent US20220281846A1, “COMPOUNDS AND COMPOSITIONS FOR THE TREATMENT OF RESPIRATORY DISEASES” (THE UNIVERSITY OF MELBOURNE, priority 2018, published 2022).
